What was measured:
[1] = test system: cholera toxin induced diarrhea in the jejunum of the rat; settings: in vivo
[2] = test system: transport of Na+ from plasma to CSF; assay: CSF production measured as 22Na+ transport from plasma to CSF after intraventricular administration; format: in vivo, rat; settings: 5 μl/min, 300 g rats under halothan, 22Na+ i.v. 30 min after erucamide
Excerpt: Effect of erucamide and analogues thereof on CSF production Production of CSF depends mainly on active transport of Na^+ from the blood to the brain ventricles (Davson and Segal, 1970). Water then follows the net transport of Na^+ and other ions to maintain osmotic balance. Therefore, formation of CSF is directly proportional to Na^+ transport into the ventricular cavities. A simple technique to measure CSF production is to determine the turnover of plasma Na^+ into CSF. The method involves maintenance of a steady state level of ^22Na^+ in plasma and sampling ^22Na^+ in the CSF at various times after injection of the isotope (Knuckey et al., 1991). […] A 2-3 mm long micro-dialysis tubing, connecting 2 polyethylene tubings, was permanently placed in the cisterna magna for sampling of CSF. […] Blood samples were taken from the tail veins at 15, 30, 90 and 180 min. Blood and CSF samples were analyzed for radioactivity. Intraventricularly administered erucamide reduced by over 40% the transport of Na^+ from plasma to CSF.

CSF production = settings: in vivo; cited from earlier work

Structure (SMILES): CCCCCCCC/C=C\CCCCCCCCCCCC(=O)O [Erucic acid, cis-13-docosenoic acid, reference compound]
- Antisecretory activity in the rat intestine model (in words) [1]: does not display any antisecretory activity

Structure (SMILES): CCCCCCCC/C=C\CCCCCCCCCCCC(N)=O [erucamide, cis-13-docosenoamide]
- Dose giving maximal antisecretory activity, expressed as concentration [1]: 0.3 pM
- Dose giving maximal antisecretory activity ([1]; iv): 1×10^−10 g/kg/dose
- Maximal antisecretory activity (inhibition of cholera toxin induced diarrhea) ([1]; iv): 75 % inhibition
- Reduction of transport of Na+ from plasma to CSF [2]: over 40%

Structure (SMILES): CCCCC/C=C\C/C=C\C/C=C\C/C=C\CCCC(=O)O [Arachidonic acid, reference compound]
- Antisecretory activity relative to erucamide activity [1]: less than 20 % of the erucamide activity

Structure (SMILES): CC(=O)Nc1nnc(S(N)(=O)=O)s1 [aztzoiamide]
- Inhibition of CSF production (CSF production): 50%

Reference: patent US20040192782A1, “Erucamide compounds for the treatment and prevention to disturbances of the secretory system” (priority 2001, published 2004)
